Entries after “also recorded” stand apart in the source; their conditions may differ.
Key:
[1] = system: IL-17F; experiment: Phase 2 study: plasma Th17 related cytokines (MSD U-Plex), IL-17F; assay type: in vivo, human; conditions: BIT225 cohort vs placebo (data not shown)
Experimental: (§1) A Phase 2, multi-centre, randomized, placebo-controlled, double-blind study of BIT225 in combination with ART (Atripla—efavirenz/emtricitabine/tenofovir DF) was undertaken in patients with HIV-1 infection that were treatment-naive. Patients were randomized into two groups on a 2:1 basis, with one group receiving BIT225 (100 mg QD; 6 patients: placebo; 3 patients), and one group receiving BIT225 (200 mg QD, 18 patients: placebo; 9 patients), with a total of 36 patients enrolled in the trial. The 100 mg BIT225 group was primarily included for detailed PK analyses due to limitations on the quantity of blood that could be drawn at time points coinciding with analyses of viral load decay, which were limited to the 200 mg cohort. All subjects received the standard dose of ART in addition to 12 weeks BIT225 or placebo study treatment. […]
(§2) Th17 cells regulate other immune cells, specifically neutrophils and macrophages, by secreting a variety of cytokines in response to pathogens. Plasma samples were analysed to determine the level of the Th17 related cytokines (IL-21, IFN-γ, IL-1p, IL-6, IL-10, IL-17A, IL-17E/IL-25, IL-17F, IL-22, and TNF-α) during the 12 week treatment period using electro-chemiluminescence MSD U-Plex Biomarker Group Th17 (Human Combo 2) Human Multiplex Assay (MesoScaleDiscovery, MD, USA).

[2] = system: TNF-α; experiment: Phase 2 study: plasma Th17 related cytokines (MSD U-Plex), TNF-α; assay type: in vivo, human; conditions: BIT225 cohort vs placebo (data not shown)
Experimental: as §1, §2

[3] = system: IL-1 B; experiment: Phase 2 study: plasma Th17 related cytokines (MSD U-Plex), IL-1 B; assay type: in vivo, human; conditions: BIT225 cohort vs placebo (data not shown)
Experimental: as §1, §2

[4] = Phase 2 study: safety and tolerability; assay type: in vivo, human
Experimental: (§3) A Phase 2, multi-centre, randomized, placebo-controlled, double-blind study of BIT225 in combination with ART (Atripla—efavirenz/emtricitabine/tenofovir DF) was undertaken in patients with HIV-1 infection that were treatment-naive. Patients were randomized into two groups on a 2:1 basis, with one group receiving BIT225 (100 mg QD; 6 patients: placebo; 3 patients), and one group receiving BIT225 (200 mg QD, 18 patients: placebo; 9 patients), with a total of 36 patients enrolled in the trial. The 100 mg BIT225 group was primarily included for detailed PK analyses due to limitations on the quantity of blood that could be drawn at time points coinciding with analyses of viral load decay, which were limited to the 200 mg cohort. All subjects received the standard dose of ART in addition to 12 weeks BIT225 or placebo study treatment. At the conclusion of the trial, patients remained on ART as per standard treatment protocols. HIV-1-infected subjects, males and females, aged 18 to 65 years inclusive, who were naive to ART were recruited. Individuals had HIV-1 RNA>5,000 copies/mL and CD4^+ T cell count>100 cells/mm^3.
There were two treatment cohorts. The first cohort received 100 mg capsule of BIT225 or placebo QD with ART for 12 weeks. Cohort 2 were given two 100 mg capsules BIT225 (200 mg BIT225) or placebo QD with ART. ART was 1 fixed dose combination tablet of Atripla.
The safety of the experimental treatments was assessed by monitoring adverse events, vital signs, ECG parameters, clinical laboratory tests (haematology, clinical chemistry, coagulation and urinalysis) and physical examinations.

[5] = Phase 2 study: pharmacokinetics (plasma, LC/MS/MS); assay type: in vivo, human
Experimental: as §3
There were two treatment cohorts. The first cohort received 100 mg capsule of BIT225 or placebo QD with ART for 12 weeks. Cohort 2 were given two 100 mg capsules BIT225 (200 mg BIT225) or placebo QD with ART. ART was 1 fixed dose combination tablet of Atripla. […]

[6] = system: CD28 on CD4^+ T cells infected with HIV-1 NL4-3; experiment: Plasma membrane CD28 expression on HIV-1 NL4-3 infected CD4+ T cells, flow cytometry; assay type: cell-based, human; conditions: 3 μM BIT225, WT HIV-1 NL4-3 infected cells, up to 72 h; dependent on Vpu expression
Experimental: (§4) Method of virus stock generation is as described by Bobardt et al., PNAS, 2008; 105(14):5525-5530. Briefly, 293T cells were transfected with proviral plasmid (9 μg) and vesicular stomatitis virus G (VSV-G) envelope plasmid (1 μg). At day 2, VSV-G pseudotyped viruses (5 μg of p24) were harvested and used to acutely infect Jurkat cells (2×10^6 cells). Two days after infection, viruses were harvested, and p24 content was measured by ELISA (PerkinElmer). Viral infections were conducted in triplicate with 10 or 100 ng of p24 derived from transfected 293T cells. The following proviral constructs were used: wild-type HIV-1 pNL4.3 […] tropic[WT], pNL4.3 ANef, pNL4.3 AVpu, pNL4.3 ANefAVpu, and HIV-1 pBaL-1 CCR5(R5) tropic[WT].
(§5) CD4^+ T cell isolation as previously described by Geijtenbeek et al., Cell, 2000, 100:587-597. Human PBMC were purified from fresh blood by banding on Ficoll-Hypaque (30 min, 800 g, 25° C.; Amersham Biosciences). Primary human CD4^+ T cells were purified from PBMC by positive selection with anti-CD4 Dynabeads and subsequent release using Detachabead (Dynal Biotech). […]
(§6) Cells were treated with 3 μM BIT225 or DMSO control, and expression of CD28, CCR7, CD80 and CD86 measured by flow cytometry at 24, 48 and 72 hour time points. […]

[7] = system: CCR7 on CD4^+ T cells infected with HIV-1 NL4-3; experiment: Plasma membrane CCR7 expression on HIV-1 NL4-3 infected CD4+ T cells, flow cytometry; assay type: cell-based, human
Experimental: as §4, §5, §6

[8] = system: CD80 on MDM infected with HIV-1 NL4-3; experiment: Plasma membrane CD80 expression on HIV-1 NL4-3 infected MDM, flow cytometry; assay type: cell-based, human
Experimental: as §4
(§7) Blood-derived CD4^+ T lymphocytes and MDM were isolated as described in Saphire et al., J Virol 2001, 75:9187-9200. CD4^+ T cells and monocytes were extracted from the blood of three donors that were CCR5-Delta32 negative. […]
as §6

[9] = system: CD86 on MDM infected with HIV-1 NL4-3; experiment: Plasma membrane CD86 expression on HIV-1 NL4-3 infected MDM, flow cytometry; assay type: cell-based, human
Experimental: as §4, §7, §6

[10] = 3 μM BIT225, ΔNefΔVpu HIV-1 NL4-3 double mutant

In the case of `Cn1cc(-c2cccc3cc(C(=O)NC(=N)N)ccc23)cn1` [BIT225, N-carbamimidoyl-5-(1-methylpyrazol-4-yl)naphthalene-2-carboxamide], the “IL-17F production versus placebo” value [1] was “no difference between cohorts”, the TNF-α versus placebo [2] was “no statistical differences” and the “IL-1 B production versus placebo” value [3] was “no statistical differences”. For the same compound, the Tolerability / safety ([4]; 100 and 200 mg QD cohorts with ART, 12 weeks) was “safe and well tolerated”, the “QTcB in one discontinued subject (mild QTcB prolongation, Day 17), considered not related to BIT225 or Atripla” value ([4]; BIT225 100 mg cohort) was greater than 480 ms and the “Subjects who discontinued the study early due to AEs” value ([4]; BIT225 100 mg cohort) was “Two”. For the same compound, the “Serious AEs or deaths” value ([4]; all cohorts) was “no serious AEs (SAEs) or deaths”, the “Effect of BIT225 on the PK characteristics of Atripla (ART)” value ([5]; co-administration (results not shown)) was “did not significantly affect; also recorded: no significant impact” and the Plasma exposures ([5]; intensive PK sampling, 100 mg cohort) was “within the expected timeframes and concentration ranges”. For the same compound, the “CD28 expression on CD4+ T cells” value [6] was “partial restoration”, the “CCR7 expression on CD4+ T cells” value ([7]; 3 μM BIT225, WT HIV-1 NL4-3-infected cells, dependent on Vpu expression) was “partial restoration” and the “CCR7 downregulation by Nef expression alone” value ([7]; 3 μM BIT225, ΔVpu virus) was “not affected”. The “Plasma membrane CD80 expression on MDM” value ([8]; 3 μM BIT225, WT or ΔNef virus infected cells (express Vpu)) was “partial restoration”, the “Plasma membrane CD80 expression on MDM” value [8, 10] was “no observable effect” and the “Plasma membrane CD86 expression on MDM” value ([9]; 3 μM BIT225, WT or ΔNef virus infected cells) was “partial restoration”. For the same compound, the “Plasma membrane CD86 expression on MDM” value [9, 10] was “no observable effect”.

Source: patent US20220409587A1, “METHODS OF TREATING HIV-1 INFECTION” (BIOTRON LIMITED, priority 2019, published 2022)
